Data: patent publication US8361711B2, “Tools and methods useful in characterising the immunotoxic activity of xenobiotic substances” (National Institute of Public Health and the Environment, …, priority 2004, dated 2013)

What was measured:
[1] = tested on: IFN-γ fused to a stabile form of EGFP; test: Clones with IFN-γ regulatory elements fused to a stabile form of EGFP; assay type: cell-based, mouse; conditions: all tested concentrations
Description: (§1) Samples were analyzed in an EPICS® XL-MCL Coulter flow cytometer with Expo v.2 Analysis Software/Expo32 Analysis Software (Applied Cytometry Systems, Sheffield, UK). or any other suitable flow cytometer. Viable and dead cells were gated separately and results were determined based on fluorescence associated with viable cells only. Regions were set in control cells and the same regions were used in induction controls and chemically challenged cells. Percent positive cells and fluorescence intensity were noted and used in further calculations.
(§2) Index numbers were calculated from the median fluorescence intensity of viable cells. Cells incubated in the absence or presence of ionomycin/PMA were analysed separately. Each clone incubated with or without ionomycin/PMA, but without further chemicals/compounds was defined as index number=1, and the index numbers for the other exposures were calculated from this.
(§3) One way ANOVAs (one way analysis of variance) were performed. In cases where normality failed, we used Kruskal-Wallis One Way Analysis of Variance on Ranks. If the differences between groups were statistically significant (p<0.05), we continued with tests for multiple comparisons. In normally distributed data we used Bonferroni t-test and multiple comparisons versus the control. The control was chosen to be the sample incubated in the presence or absence of ionomycin/PMA only. When normality failed we used […] for multiple comparisons versus the control.

[2] = tested on: cell lines developed in the project
Description: The basic cytotoxicty assay employed was LDH release. Several cytotoxicity assays were performed independently in two laboratories. […] In addition, the cytotoxicity associated with the solvent was also tested to eliminate the possibility of interference in the test outcome.
Cells were plated in 24 well microtiter plates at a density of 0.5×10^6 cells/mL and with a final volume of 1.5 mL/well. Two controls were included for each cell line, in each experiment.

[3] = tested on: IL-2 fused to a stabile form of EGFP; test: Clones with IL-2 regulatory elements fused to a stabile form of EGFP; assay type: cell-based, mouse; conditions: all tested concentrations
Description: as §1, §2, §3

[4] = tested on: IL-2 reporter cells EL/p1-5′IL2-EGFP/3 and EL/p1-5′IL2-dEGFP/6 (EL4); test: Preliminary test of IL-2 reporter cells (FACS, fluorescence microscope, Fluorostar); assay type: cell-based, mouse
[5] = tested on: BW5147.3 derived GFP transfected cell clones; test: BW5147.3 derived GFP transfected cell clones, GFP expression; assay type: cell-based
Text: BW5147.3 derived GFP transfected cell clones have been also used to test the effects of immunomodulatory compounds.

[6] = tested on: IL-2; test: RT-PCR of endogenous cytokine expression in activated reporter cell lines; assay type: cell-based
Description: (§4) In order to correlate the GFP expression data with effects on the expression of endogenous cytokine mRNA, RT-PCR analysis was performed. Non-transfected EL4 and BW5147.3 cells were activated with TPA/ionomycin or anti-CD3 and RNA was prepared. Following cDNA synthesis PCR was performed to detect expression of IL-2, IFNγ, and GAPDH (control). The results generally agree with the GFP expression data. In BW5147.3 cells neither IL-2, nor IFNγ mRNA, could be detected in non-induced cells or after activation. In EL4 cells, IL-2 and IFNγ expression could be induced by TPA/ionomycin, but not anti-CD3.
(§5) For EL4 derived cells basal GFP expression was not affected following treatment with any of the above chemicals. […] This inhibitory effect of Cyclosporine was observed independently in all three laboratories performing such experiments. Furthermore, this inhibition of EGFP expression was detected with all three techniques emplyed for EGFP measurements (i.e. FACS, fluorescence microscope, and Fluorostar).

[7] = tested on: IFNγ; test: as above; assay type: cell-based
Description: as §4, §5

| SMILES | IFN-γ expression, stabile EGFP clone ([1]; absence of ionomycin/PMA) | IFN-γ expression, stabile EGFP clone ([1]; presence of ionomycin/PMA) | toxicity (LDH-assay) [2] | IL-2 expression, stabile EGFP clone ([3]; absence of ionomycin/PMA) | IL-2 expression, stabile EGFP clone ([3]; presence of ionomycin/PMA) | basal GFP expression ([4]; EL4 derived cells, not activated) | activation induced GFP expression ([4]; activation with TPA/ionophore) | basal GFP expression [5] | upregulation of expression of IL-2 (RT-PCR) [6] | upregulation of expression of IFNγ (RT-PCR) [7] |
| --- | --- | --- | --- | --- | --- | --- | --- | --- | --- | --- |
| CC1(C)S[C@@H]2[C@H](NC(=O)Cc3ccccc3)C(=O)N2[C@H]1C(=O)[O-].[Na+] [penicillin G, Penicillin G (Benzylpenicillin) sodium salt] | failed to alter expression | failed to alter expression | did not find penicillin G to be toxic | failed to alter expression | failed to alter expression | – | – | – | – | – |
| Clc1cc2c(cc1Cl)Oc1cc(Cl)c(Cl)cc1O2 [TCDD] | – | – | – | – | – | not affected | did not have any effect | did not affect the basal GFP expression | had no effect | had no effect |
